Values joined by “and” are separate entries in the source; they are usually repeats but may differ in a detail not shown here. Equal values may be shown once. Inconclusive results and toxic doses are left out. How the source made its calls: active means survival T/C of 150% or more; inactive means T/C below 125% in these data. Peptide text beside a SMILES is read from it.
System: P388 leukemia ip, CD2F1 mice, survival T/C
Assay: NCI In Vivo Anticancer Drug Screen. Data for tumor model P388 Leukemia (intraperitoneal) in CD2F1 (CDF1) mice
Settings: endpoint: median survival time, higher = longer survival
Summary of the method: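 Mice carrying the transplanted tumor received test compound or vehicle. Survival was recorded in each group, and the value is the treated-group measurement divided by that of the vehicle-treated control group.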

[1] = dose: 60.0 mg/kg/injection, schedule: Q01DX005 (ip), vehicle: saline with Tween-80
[2] = dose: 120.0 mg/kg/injection, schedule: Q01DX005 (ip), vehicle: saline with Tween-80
[3] = dose: 240.0 mg/kg/injection, schedule: Q01DX005 (ip), vehicle: saline with Tween-80
[4] = dose: 50.0 mg/kg/injection, schedule: Q01DX009 (ip), vehicle: saline with Tween-80
[5] = dose: 100.0 mg/kg/injection, schedule: Q01DX009 (ip), vehicle: saline with Tween-80
[6] = dose: 200.0 mg/kg/injection, schedule: Q01DX009 (ip), vehicle: saline with Tween-80
[7] = dose: 50.0 mg/kg/injection, schedule: Q01DX005 (ip), vehicle: saline with Tween-80
[8] = dose: 100.0 mg/kg/injection, schedule: Q01DX005 (ip), vehicle: saline with Tween-80
[9] = dose: 200.0 mg/kg/injection, schedule: Q01DX005 (ip), vehicle: saline with Tween-80
[10] = dose: 12.5 mg/kg/injection, schedule: Q01DX009 (ip), vehicle: saline with Tween-80
[11] = dose: 25.0 mg/kg/injection, schedule: Q01DX009 (ip), vehicle: saline with Tween-80
[12] = dose: 100.0 mg/kg/injection, schedule: Q04DX003 (ip), vehicle: saline with Tween-80
[13] = dose: 200.0 mg/kg/injection, schedule: Q04DX003 (ip), vehicle: saline with Tween-80

Measured: T/C

O=[N+]([O-])c1ccc2c(c1)SC1=NN3C(O)COC(OCc4ccccc4)C3N12 (stereo not given)
inactive: dose: 100.0 mg/kg/injection, schedule: Q04DX002 (ip), vehicle: saline 97 % of control | dose: 200.0 mg/kg/injection, schedule: Q04DX002 (ip), vehicle: saline 100 % of control | dose: 400.0 mg/kg/injection, schedule: Q04DX002 (ip), vehicle: saline 93 % of control

O=C1COC(C(O)(c2ccccc2)c2ccccc2)C(=O)N1 (stereo not given)
inactive: [1] 107 % of control | [2] 102 % of control | [3] 98 % of control

C=C(CO)C(=O)OC1CC(=C)C2CC(O)C(C)C2C2OC(=O)C(=C)C12 (stereo not given)
inactive: dose: 0.75 mg/kg/injection, schedule: Q01DX009 (ip), vehicle: Klucel (hydroxypropylcellulose) (HPC) 100 % of control and 114 % of control | dose: 1.5 mg/kg/injection, schedule: Q01DX009 (ip), vehicle: Klucel (hydroxypropylcellulose) (HPC) 104 % of control and 91 % of control | dose: 3.0 mg/kg/injection, schedule: Q01DX009 (ip), vehicle: Klucel (hydroxypropylcellulose) (HPC) 98 % of control and 97 % of control | dose: 6.0 mg/kg/injection, schedule: Q01DX009 (ip), vehicle: Klucel (hydroxypropylcellulose) (HPC) 102 % of control and 107 % of control and 112 % of control | dose: 12.0 mg/kg/injection, schedule: Q01DX009 (ip), vehicle: Klucel (hydroxypropylcellulose) (HPC) 103 % of control | dose: 24.0 mg/kg/injection, schedule: Q01DX009 (ip), vehicle: Klucel (hydroxypropylcellulose) (HPC) 98 % of control

CCOC(=O)c1ccc(NC(=S)NC(=O)c2ccco2)o1
inactive: [4] 92 % of control | [5] 100 % of control | [6] 92 % of control

NCCCCC(C(=O)NCC(=O)O)N(C(=O)OCc1ccccc1)C(=O)OCc1ccccc1 (stereo not given)
inactive: [7] 101 % of control | [8] 101 % of control | [9] 90 % of control

CCOC(=O)CSc1ccc(C)cc1C(O)(C(F)(F)F)C(F)(F)F
inactive: [10] 98 % of control | [11] 99 % of control | [4] 108 % of control | [5] 99 % of control | [6] 101 % of control

CSc1ccc2c(c1)C(N1CCN(C)CC1)Cc1ccccc1S2 (stereo not given)
inactive: dose: 6.25 mg/kg/injection, schedule: Q01DX009 (ip), vehicle: saline with Tween-80 106 % of control and 107 % of control and 114 % of control | [10] 103 % of control and 107 % of control and 95 % of control | dose: 12.5 mg/kg/injection, schedule: Q01DX009 (ip), vehicle: saline 117 % of control | [11] 86 % of control and 95 % of control | dose: 25.0 mg/kg/injection, schedule: Q01DX009 (ip), vehicle: saline 118 % of control

CCN(CC)C(=O)OC1c2ccccc2C2CC1c1ccccc1C2O (stereo not given)
inactive: dose: 100.0 mg/kg/injection, schedule: Q04DX003 (ip), vehicle: Klucel (hydroxypropylcellulose) (HPC) 97 % of control | dose: 200.0 mg/kg/injection, schedule: Q04DX003 (ip), vehicle: Klucel (hydroxypropylcellulose) (HPC) 102 % of control | dose: 400.0 mg/kg/injection, schedule: Q04DX003 (ip), vehicle: Klucel (hydroxypropylcellulose) (HPC) 89 % of control

Cc1cc[n+](-c2nc3c([O-])n(C)c(=O)n(C)c-3n2)cc1
inactive: dose: 100.0 mg/kg/injection, schedule: Q04DX003 (ip), vehicle: saline 99 % of control | dose: 200.0 mg/kg/injection, schedule: Q04DX003 (ip), vehicle: saline 99 % of control | dose: 400.0 mg/kg/injection, schedule: Q04DX003 (ip), vehicle: saline 94 % of control

Cc1ccc(S(=O)(=O)CN(CN2C(=O)CCC2=O)c2ccc(Cl)cc2)cc1
inactive: dose: 15.0 mg/kg/injection, schedule: Q01DX005 (ip), vehicle: Klucel (hydroxypropylcellulose) (HPC) 101 % of control | dose: 30.0 mg/kg/injection, schedule: Q01DX005 (ip), vehicle: Klucel (hydroxypropylcellulose) (HPC) 95 % of control | dose: 60.0 mg/kg/injection, schedule: Q01DX005 (ip), vehicle: Klucel (hydroxypropylcellulose) (HPC) 91 % of control and 93 % of control | dose: 240.0 mg/kg/injection, schedule: Q01DX005 (ip), vehicle: Klucel (hydroxypropylcellulose) (HPC) 90 % of control

C[C@H](CS)C(=O)N1c2ccccc2C[C@H]1C(=O)O
inactive: [1] 101 % of control | [2] 104 % of control | [3] 113 % of control

Cc1ccc(Cl)cc1NS(=O)(=O)c1ccc2ccccc2c1
inactive: [12] 100 % of control | [13] 109 % of control | dose: 400.0 mg/kg/injection, schedule: Q04DX003 (ip), vehicle: saline with Tween-80 104 % of control

O=C1CCCc2[nH]c3ccc(F)cc3c21
inactive: [7] 91 % of control | [8] 90 % of control | [9] 88 % of control

CCCN(CCC)CCSC(=S)NCCOC
inactive: [12] 100 % of control | [13] 100 % of control

CCCCCCCCCCCC[N+]1(CC)CCCCCC1
inactive: dose: 0.78 mg/kg/injection, schedule: Q01DX009 (ip), vehicle: saline 113 % of control | dose: 1.56 mg/kg/injection, schedule: Q01DX009 (ip), vehicle: saline 111 % of control | dose: 3.12 mg/kg/injection, schedule: Q01DX009 (ip), vehicle: saline 92 % of control

O=C(O)CC(NC(=O)CCl)C(=O)O (stereo not given)
inactive: dose: 50.0 mg/kg/injection, schedule: Q01DX009 (ip), vehicle: saline 99 % of control and 101 % of control | dose: 100.0 mg/kg/injection, schedule: Q01DX009 (ip), vehicle: saline 100 % of control and 101 % of control | dose: 200.0 mg/kg/injection, schedule: Q01DX009 (ip), vehicle: saline 101 % of control and 92 % of control

CN1OC(=O)OC(C)(c2ccccc2)C1=O (stereo not given)
inactive: [7] 98 % of control | [8] 97 % of control | [9] 97 % of control

CC(=O)NC(Cc1ccccc1)C(=O)NC(Cc1ccccc1)C(=O)O (stereo not drawn) (Ac-Phe-Phe-OH; configuration not given here)
inactive: [7] 107 % of control | [8] 103 % of control | [9] 94 % of control

CN(C)CCCN1c2ccccc2CCc2ccccc21
inactive: [1] 115 % of control | [2] 109 % of control

CC1=C(C(N)=O)C(c2ccccc2)NC(=S)N1 (stereo not given)
inactive: dose: 3.12 mg/kg/injection, schedule: Q01DX005 (ip), vehicle: Klucel (hydroxypropylcellulose) (HPC) 101 % of control | dose: 6.25 mg/kg/injection, schedule: Q01DX005 (ip), vehicle: Klucel (hydroxypropylcellulose) (HPC) 95 % of control | dose: 12.5 mg/kg/injection, schedule: Q01DX005 (ip), vehicle: Klucel (hydroxypropylcellulose) (HPC) 100 % of control | dose: 25.0 mg/kg/injection, schedule: Q01DX005 (ip), vehicle: Klucel (hydroxypropylcellulose) (HPC) 100 % of control and 101 % of control (2×)

Cc1ccc(S(=O)(=O)C(Cl)(SCl)Sc2ccccc2)cc1 (stereo not given)
inactive: dose: 50.0 mg/kg/injection, schedule: Q01DX009 (ip), vehicle: Klucel (hydroxypropylcellulose) (HPC) 95 % of control | dose: 100.0 mg/kg/injection, schedule: Q01DX009 (ip), vehicle: Klucel (hydroxypropylcellulose) (HPC) 93 % of control | dose: 200.0 mg/kg/injection, schedule: Q01DX009 (ip), vehicle: Klucel (hydroxypropylcellulose) (HPC) 93 % of control

O=C(c1ccc(Cl)cc1)n1c(Cl)c(/C=N\Nc2cccc([N+](=O)[O-])c2)c2ccccc21
inactive: dose: 50.0 mg/kg/injection, schedule: Q01DX001 (ip), vehicle: Klucel (hydroxypropylcellulose) (HPC) 86 % of control | dose: 100.0 mg/kg/injection, schedule: Q01DX001 (ip), vehicle: Klucel (hydroxypropylcellulose) (HPC) 86 % of control | dose: 200.0 mg/kg/injection, schedule: Q01DX001 (ip), vehicle: Klucel (hydroxypropylcellulose) (HPC) 87 % of control

CC1(C)COCN1COCCCOCN1COCC1(C)C
inactive: [10] 102 % of control | [11] 120 % of control | dose: 150.0 mg/kg/injection, schedule: Q01DX009 (ip), vehicle: saline with Tween-80 118 % of control

C=CC[S+]1CCSC1C(=O)OCC (stereo not given)
inactive: dose: 100.0 mg/kg/injection, schedule: Q01DX001 (ip), vehicle: saline 95 % of control | dose: 200.0 mg/kg/injection, schedule: Q01DX001 (ip), vehicle: saline 112 % of control | dose: 400.0 mg/kg/injection, schedule: Q01DX001 (ip), vehicle: saline 91 % of control

CC1CN1P(=S)(N1CC1C)N1CC1C (stereo not given)
inactive: dose: 2.5 mg/kg/injection, schedule: Q01DX010 (ip), vehicle: saline 110 % of control | dose: 5.0 mg/kg/injection, schedule: Q01DX010 (ip), vehicle: saline 95 % of control | dose: 10.0 mg/kg/injection, schedule: Q01DX010 (ip), vehicle: saline 115 % of control

CCC(O)(CC)/C(C)=N/O
inactive: [4] 91 % of control | [5] 89 % of control | [6] 94 % of control

Source: PubChem BioAssay AID330 (DTP/NCI, 2004)
